# Data as given in patent US20190255086A1, “Compositions and Methods for Treating an Infection” (CMPD Licensing, LLC, priority 2015, published 2019).
# Experiments:
# [1] = tested on: Viridans group streptococci; assay: Expected efficacy of anti-bacterial agents against various bacteria (Tables 5 and 6); settings: Gram: pos
# [2] = tested on: Staphylococcus epidermidis; assay: as above; settings: Gram: pos
# [3] = tested on: Neisseria meningitidis; assay: as above; settings: Gram: neg
# [4] = tested on: Rickettsiae; settings: expected efficacy; Rickettsiae; Gram: neg
# [5] = tested on: Serratia marcescens; assay: Expected efficacy of anti-bacterial agents against various bacteria (Tables 5 and 6); settings: Gram: neg
# [6] = tested on: Moraxella catarrhalis; assay: as above; settings: Gram: neg
# [7] = tested on: Vibrio cholerae; assay: as above; settings: Gram: neg
# [8] = tested on: Klebsiella pneumoniae; assay: as above; settings: Gram: neg
# [9] = tested on: Klebsiella (Calymmatobacterium) granulomatis; assay: as above; settings: Gram: neg
# [10] = tested on: Proteus mirabilis; assay: as above; settings: Gram: neg
# [11] = tested on: Proteus vulgaris; assay: as above; settings: Gram: neg
# [12] = tested on: Haemophilus influenzae; assay: as above; settings: Gram: neg
# [13] = tested on: Neisseria gonorrhoeae; assay: as above; settings: Gram: neg
# [14] = tested on: Enterobacter aerogenes; assay: as above; settings: Gram: neg
# [15] = tested on: Shigella sonnei; assay: as above; settings: Gram: neg
# [16] = tested on: Enterobacter cloacae; assay: as above; settings: Gram: neg
# [17] = tested on: Citrobacter freundii; assay: as above; settings: Gram: neg
# [18] = tested on: Morganella morganii; assay: as above; settings: Gram: neg
# [19] = tested on: Shigella dysenteriae; assay: as above; settings: Gram: neg
# [20] = tested on: Enterococcus faecium; assay: as above; settings: Gram: pos
# [21] = tested on: Providencia stuartii; assay: as above; settings: Gram: neg
# [22] = tested on: Enterobacter sakazakii; assay: as above; settings: Gram: neg
# [23] = tested on: Enterococcus faecalis; assay: as above; settings: Gram: pos
# [24] = tested on: Mycoplasma pneumoniae; assay: as above; settings: Gram: n/a
# [25] = tested on: Acinetobacter lwoffii; assay: as above; settings: Gram: neg
# [26] = tested on: Staphylococcus aureus (MSSA); assay: as above; settings: Gram: pos
# [27] = tested on: Clostridium difficile; assay: as above; settings: Gram: anaer
# [28] = tested on: Diphtheroids; assay: as above; settings: Gram: pos
# [29] = tested on: Acinetobacter baumannii; assay: as above; settings: Gram: neg
# [30] = tested on: Campylobacter jejuni; assay: as above; settings: Gram: neg
# [31] = tested on: Pseudomonas aeruginosa; assay: as above; settings: Gram: neg
# [32] = tested on: Corynebacterium urealyticum; assay: as above; settings: Gram: pos
# [33] = tested on: Escherichia coli; assay: as above; settings: Gram: neg
# [34] = tested on: Haemophilus ducreyi; assay: as above; settings: Gram: neg
# [35] = tested on: Klebsiella oxytoca; assay: as above; settings: Gram: neg
# [36] = tested on: Bacteroides fragilis; assay: as above; settings: Gram: anaer
# [37] = tested on: Bordetella pertussis; assay: as above; settings: Gram: neg
# [38] = tested on: Francisella tularensis; settings: expected efficacy; Francisella tularensis; Gram: neg
# [39] = tested on: Peptostreptococcus; assay: Expected efficacy of anti-bacterial agents against various bacteria (Tables 5 and 6); settings: Gram: pos
# [40] = tested on: Providencia rettgeri; assay: as above; settings: Gram: neg
# [41] = tested on: Shigella flexneri; assay: as above; settings: Gram: neg
# [42] = tested on: Acinetobacter calcoaceticus; assay: as above; settings: Gram: neg
# [43] = tested on: Haemophilus parainfluenzae; assay: as above; settings: Gram: neg
# [44] = tested on: Chlamydia pneumoniae; assay: as above; settings: Gram: n/a
# [45] = tested on: Streptococcus agalactiae; assay: as above; settings: Gram: pos
# [46] = tested on: Methicillin resistant staph aureus (MRSA); assay: as above; settings: Gram: pos
# [47] = tested on: Shigella boydii; assay: as above; settings: Gram: neg
# [48] = tested on: Corynebacterium jeikeium; assay: as above; settings: Gram: pos
# [49] = tested on: Chlamydia psittaci; settings: expected efficacy; Chlamydia psittaci; Gram: n/a
# [50] = tested on: Streptococcus pneumoniae; assay: Expected efficacy of anti-bacterial agents against various bacteria (Tables 5 and 6); settings: Gram: pos
# [51] = tested on: Legionella pneumophila; settings: expected efficacy; Legionella pneumophila; Gram: neg
# [52] = tested on: Yersinia pestis; settings: expected efficacy; Yersinia pestis; Gram: neg
# [53] = tested on: Clostridium perfringens; settings: expected efficacy; Clostridium perfringens; Gram: anaer
# [54] = tested on: Chlamydia trachomatis; assay: Expected efficacy of anti-bacterial agents against various bacteria (Tables 5 and 6); settings: Gram: n/a
# [55] = tested on: Salmonella typhi; assay: as above; settings: Gram: neg
# [56] = tested on: Streptococcus pyogenes; assay: as above; settings: Gram: pos
# [57] = tested on: Citrobacter diversus; assay: as above; settings: Gram: neg
# [58] = tested on: Brucella species; settings: expected efficacy; Brucella species; Gram: neg
# [59] = tested on: Pseudomonas fluorescens; assay: Expected efficacy of anti-bacterial agents against various bacteria (Tables 5 and 6); settings: Gram: neg
compound,measurement,setting,value
CO/N=C(\C(=O)N[C@@H]1C(=O)N2C(C(=O)O)=C(CSc3nc(=O)c(=O)[nH]n3C)CS[C@H]12)c1csc(N)n1 [Ceftriaxone],Efficacy of various antibiotic agents,[1],yes
same,Efficacy of various antibiotic agents,[2],yes
same,Efficacy of various antibiotic agents,[3],yes
same,Efficacy of various antibiotic agents,[4],no
same,Efficacy of various antibiotic agents,[5],yes
same,Efficacy of various antibiotic agents,[6],yes
same,Efficacy of various antibiotic agents,[7],no
same,Efficacy of various antibiotic agents,[8],yes
same,Efficacy of various antibiotic agents,[9],yes
same,Efficacy of various antibiotic agents,[10],yes
same,Efficacy of various antibiotic agents,[11],yes
same,Efficacy of various antibiotic agents,[12],yes
same,Efficacy of various antibiotic agents,[13],yes
same,Efficacy of various antibiotic agents,[14],yes
same,Efficacy of various antibiotic agents,[15],yes
same,Efficacy of various antibiotic agents,[16],yes
same,Efficacy of various antibiotic agents,[17],yes
same,Efficacy of various antibiotic agents,[18],yes
same,Efficacy of various antibiotic agents,[19],yes
same,Efficacy of various antibiotic agents,[20],no
same,Efficacy of various antibiotic agents,[21],yes
same,Efficacy of various antibiotic agents,[22],yes
same,Efficacy of various antibiotic agents,[23],no
same,Efficacy of various antibiotic agents,[24],no
same,Efficacy of various antibiotic agents,[25],no
same,Efficacy of various antibiotic agents,[26],yes
same,Efficacy of various antibiotic agents,[27],no
same,Efficacy of various antibiotic agents,[28],no
same,Efficacy of various antibiotic agents,[29],no
same,Efficacy of various antibiotic agents,[30],no
same,Efficacy of various antibiotic agents,[31],no
same,Efficacy of various antibiotic agents,[32],no
same,Efficacy of various antibiotic agents,[33],yes
same,Efficacy of various antibiotic agents,[34],yes
same,Efficacy of various antibiotic agents,[35],yes
same,Efficacy of various antibiotic agents,[36],yes
same,Efficacy of various antibiotic agents,[37],no
same,Efficacy of various antibiotic agents,[38],no
same,Efficacy of various antibiotic agents,[39],yes
same,Efficacy of various antibiotic agents,[40],yes
same,Efficacy of various antibiotic agents,[41],yes
same,Efficacy of various antibiotic agents,[42],no
same,Efficacy of various antibiotic agents,[43],yes
same,Efficacy of various antibiotic agents,[44],no
same,Efficacy of various antibiotic agents,[45],yes
same,Efficacy of various antibiotic agents,[46],no
same,Efficacy of various antibiotic agents,[47],yes
same,Efficacy of various antibiotic agents,[48],no
same,Efficacy of various antibiotic agents,[49],no
same,Efficacy of various antibiotic agents,[50],yes
same,Efficacy of various antibiotic agents,[51],no
same,Efficacy of various antibiotic agents,[52],no
same,Efficacy of various antibiotic agents,[53],yes
same,Efficacy of various antibiotic agents,[54],no
same,Efficacy of various antibiotic agents,[55],yes
same,Efficacy of various antibiotic agents,[56],yes
same,Efficacy of various antibiotic agents,[57],yes
Colistimethate,Efficacy of various antibiotic agents,[1],no
same,Efficacy of various antibiotic agents,[2],no
same,Efficacy of various antibiotic agents,[3],no
same,Efficacy of various antibiotic agents,[5],no
same,Efficacy of various antibiotic agents,[6],no
same,Efficacy of various antibiotic agents,[7],no
same,Efficacy of various antibiotic agents,[8],yes
same,Efficacy of various antibiotic agents,[9],yes
same,Efficacy of various antibiotic agents,[10],no
same,Efficacy of various antibiotic agents,[11],no
same,Efficacy of various antibiotic agents,[13],no
same,Efficacy of various antibiotic agents,[14],yes
same,Efficacy of various antibiotic agents,[16],yes
same,Efficacy of various antibiotic agents,[20],no
same,Efficacy of various antibiotic agents,[21],no
same,Efficacy of various antibiotic agents,[22],yes
same,Efficacy of various antibiotic agents,[23],no
same,Efficacy of various antibiotic agents,[24],no
same,Efficacy of various antibiotic agents,[26],no
same,Efficacy of various antibiotic agents,[27],no
same,Efficacy of various antibiotic agents,[28],no
same,Efficacy of various antibiotic agents,[31],yes
same,Efficacy of various antibiotic agents,[32],no
same,Efficacy of various antibiotic agents,[33],yes
same,Efficacy of various antibiotic agents,[35],yes
same,Efficacy of various antibiotic agents,[36],no
same,Efficacy of various antibiotic agents,[37],no
same,Efficacy of various antibiotic agents,[39],no
same,Efficacy of various antibiotic agents,[40],no
same,Efficacy of various antibiotic agents,[58],no
same,Efficacy of various antibiotic agents,[43],no
same,Efficacy of various antibiotic agents,[44],no
same,Efficacy of various antibiotic agents,[45],no
same,Efficacy of various antibiotic agents,[46],no
same,Efficacy of various antibiotic agents,[48],no
same,Efficacy of various antibiotic agents,[49],no
same,Efficacy of various antibiotic agents,[50],no
same,Efficacy of various antibiotic agents,[59],yes
same,Efficacy of various antibiotic agents,[51],no
same,Efficacy of various antibiotic agents,[54],no
same,Efficacy of various antibiotic agents,[56],no
